From patent US20140011799A1 (Bristol-Myers Squibb Company, priority 2012, published 2014)

How the values were obtained:
Endothelial lipase (EL) = molecular target: T1, Endothelial lipase (EL) (Homo sapiens, UniProt Q9Y5X9); assay: Endothelial lipase (EL) enzymatic assay, fluorescent substrate A10070 in DMPG vesicles; format: biochemical; details: EL from conditioned media of HT-1080 cells; compound preincubated 30 min at 37° C; read-out: EL IC50
T1 construct: HT-1080 cells that were transformed using RAGE technology (Athersys) to overexpress endogenous EL; endogenous in cells; conditioned medium used
T1 sequence (Q9Y5X9 21-500): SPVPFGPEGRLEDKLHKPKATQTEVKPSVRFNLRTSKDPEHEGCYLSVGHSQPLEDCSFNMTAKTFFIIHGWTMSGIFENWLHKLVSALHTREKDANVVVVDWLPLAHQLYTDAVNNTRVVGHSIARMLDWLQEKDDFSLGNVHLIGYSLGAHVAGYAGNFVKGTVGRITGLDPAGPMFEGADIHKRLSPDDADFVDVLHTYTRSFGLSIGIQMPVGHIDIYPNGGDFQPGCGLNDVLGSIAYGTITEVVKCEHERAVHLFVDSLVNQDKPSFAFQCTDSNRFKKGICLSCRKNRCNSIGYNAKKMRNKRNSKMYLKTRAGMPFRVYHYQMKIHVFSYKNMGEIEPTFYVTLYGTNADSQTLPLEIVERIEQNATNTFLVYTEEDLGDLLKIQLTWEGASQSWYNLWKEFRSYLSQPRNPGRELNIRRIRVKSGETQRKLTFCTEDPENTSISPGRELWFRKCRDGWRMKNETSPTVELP
Summary of the method: (§1)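 Vesicles prepared: A10070 dried with DMPG, resuspended in HEPES pH 8.0/NaCl/EDTA, sonicated on ice. Enzyme incubated with compound 30 min at 37° C. Reaction started with 1:10 diluted vesicles. Fluorescence (490/530 nm) followed 60 min; slope from 300–900 secs gives rate.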

hepatic lipase (HL) = molecular target: T2, hepatic lipase (HL) (Homo sapiens, UniProt P11150); assay: Hepatic lipase (HL) enzymatic assay, fluorescent substrate A10070 in DMPG vesicles; format: biochemical; details: HL partially purified from conditioned media of COS cells; compound preincubated 30 min at 37° C; read-out: HL IC50
T2 construct: made in house; host or cells: COS cells (conditioned medium, partially purified)
T2 sequence (P11150 23-499): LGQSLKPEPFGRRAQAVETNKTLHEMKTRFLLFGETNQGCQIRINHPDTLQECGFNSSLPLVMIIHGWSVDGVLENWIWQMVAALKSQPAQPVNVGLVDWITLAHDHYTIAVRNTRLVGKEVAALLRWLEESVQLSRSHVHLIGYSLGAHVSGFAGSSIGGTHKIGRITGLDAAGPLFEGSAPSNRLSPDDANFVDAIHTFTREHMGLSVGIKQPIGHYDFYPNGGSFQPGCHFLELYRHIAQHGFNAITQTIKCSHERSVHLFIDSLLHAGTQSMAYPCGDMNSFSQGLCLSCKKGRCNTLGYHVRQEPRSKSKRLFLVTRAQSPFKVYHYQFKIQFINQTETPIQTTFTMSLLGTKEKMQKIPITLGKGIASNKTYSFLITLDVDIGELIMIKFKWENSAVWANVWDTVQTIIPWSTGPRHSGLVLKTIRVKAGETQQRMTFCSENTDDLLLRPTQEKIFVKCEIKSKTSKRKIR
Summary of the method: as §1

IC50 (Endothelial lipase (EL)) | IC50 (hepatic lipase (HL)) | Structure (SMILES)
3 nM | 5 nM | CS(=O)(=O)C(c1nnc(CNS(N)(=O)=O)o1)c1nc2ccc(-c3cccc(C(=O)NC4CCC4)c3)cc2s1 (stereo not drawn) [Example 261, N-cyclobutyl-3-{2-[methanesulfonyl({5-[(sulfamoylamino)methyl]-1,3,4-oxadiazol-2-yl})methyl]-1,3-benzothiazol-6-yl}benzamide]
< 10 nM | < 10 nM | NS(=O)(=O)NCc1nnc(C(c2nc3ccc(-c4cnn(-c5ccc(F)cc5)c4)cc3s2)S(=O)(=O)Cc2ccccc2)o1 (stereo not drawn) [Example 138, N-((5-((benzylsulfonyl)(6-(1-(4-fluorophenyl)-1H-pyrazol-4-yl)-1,3-benzothiazol-2-yl)methyl)-1,3,4-oxadiazol-2-yl)methyl)sulfamide]
117 nM | > 25000 nM | COCCS(=O)(=O)C(c1nnc(CNS(=O)(=O)NC(=O)OC(C)(C)C)o1)c1nc2ccc(-c3cnn(C)c3)cc2s1 (stereo not drawn) [Example 115, tert-butyl (((5-(((2-methoxyethyl)sulfonyl)(6-(1-methyl-1H-pyrazol-4-yl)-1,3-benzothiazol-2-yl)methyl)-1,3,4-oxadiazol-2-yl)methyl)sulfamoyl)carbamate]
8 nM | 35 nM | CS(=O)(=O)C(c1nnc(CNS(N)(=O)=O)o1)c1nc2ccc(-c3cccc(C(=O)NC4CCC(O)CC4)c3)cc2s1 (stereo not drawn) [Example 258, N-(4-hydroxycyclohexyl)-3-{2-[methanesulfonyl({5-[(sulfamoylamino)methyl]-1,3,4-oxadiazol-2-yl})methyl]-1,3-benzothiazol-6-yl}benzamide]
22 nM | 370 nM | CC1(Cc2nnc(C(c3nc4ccc(-c5cccc(C(=O)N6CC[C@H](O)C6)c5)cc4s3)S(C)(=O)=O)o2)NC(=O)NC1=O (stereo partly drawn) [Example 207, 5-({5-[(6-{3-[(3S)-3-hydroxypyrrolidine-1-carbonyl]phenyl}-1,3-benzothiazol-2-yl) (methanesulfonyl)methyl]-1,3,4-oxadiazol-2-yl}methyl)-5-methyl-imidazolidine-2,4-dione]
9 nM | 6 nM | CS(=O)(=O)C(c1nnc(CNS(N)(=O)=O)o1)c1nc2cc(-c3ncccn3)ccc2s1 (stereo not drawn) [Example 246, N-[(5-{methanesulfonyl[5-(pyrimidin-2-yl)-1,3-benzothiazol-2-yl]methyl}-1,3,4-oxadiazol-2-yl)methyl]aminosulfonamide]
< 10 nM | < 10 nM | CC(O)CS(=O)(=O)C(c1nnc(CNS(N)(=O)=O)o1)c1nc2ccc(-c3ccccc3)cc2s1 (stereo not drawn) [Example 170, N-((5-(((2-Hydroxypropyl)sulfonyl)(6-phenyl-1,3-benzothiazol-2-yl)methyl)-1,3,4-oxadiazol-2-yl)methyl)sulfamide]
8 nM | 162 nM | COC1(C)CN(C(=O)c2cccc(-c3ccc4nc(C(c5nnc(CC6(C)NC(=O)NC6=O)o5)S(C)(=O)=O)sc4c3)c2)C1 (stereo not drawn) [Example 222, 5-({5-[methanesulfonyl({6-[3-(3-methoxy-3-methyl-azetidine-1-carbonyl)phenyl]-1,3-benzothiazol-2-yl})methyl]-1,3,4-oxadiazol-2-yl}methyl)-5-methyl-imidazolidine-2,4-dione]
< 10 nM | 102 nM | COc1cc(-c2ccc3nc(C(c4nnc(CNS(N)(=O)=O)o4)S(C)(=O)=O)sc3c2)ccn1 (stereo not drawn) [Example 131, N-((5-((6-(2-methoxy-4-pyridinyl)-1,3-benzothiazol-2-yl)(methylsulfonyl)methyl)-1,3,4-oxadiazol-2-yl)methyl)sulfamide]
< 10 nM | 160 nM | CS(=O)(=O)C(c1nnc(CC2SC(=O)NC2=O)o1)c1nc2ccc(-c3ccc(=O)n(Cc4ccccc4)c3)cc2s1 (stereo not drawn) [Example 101, 5-((5-((6-(1-benzyl-6-oxo-1,6-dihydro-3-pyridinyl)-1,3-benzothiazol-2-yl)(methylsulfonyl)methyl)-1,3,4-oxadiazol-2-yl)methyl)-1,3-thiazolidine-2,4-dione]
< 10 nM | 50 nM | CN(C)C(=O)c1ccc(-c2ccc3nc(C(c4nnc(CNS(=O)(=O)NC(=O)OC(C)(C)C)o4)S(=O)(=O)Cc4ccccc4)sc3c2)cc1Cl (stereo not drawn) [Example 141, tert-butyl (((5-((benzylsulfonyl)(6-(3-chloro-4-(dimethylcarbamoyl)phenyl)-1,3-benzothiazol-2-yl)methyl)-1,3,4-oxadiazol-2-yl)methyl)sulfamoyl) carbamate]
< 10 nM | 91 nM | CC1(CS(=O)(=O)C(c2nnc(CNS(N)(=O)=O)o2)c2nc3ccc(-c4ccc(C(=O)N5CCOCC5)cc4)cc3s2)COC1 (stereo not drawn) [Example 135, N-((5-((((3-methyl-3-oxetanyl)methyl)sulfonyl)(6-(4-(4-morpholinylcarbonyl)phenyl)-1,3-benzothiazol-2-yl)methyl)-1,3,4-oxadiazol-2-yl)methyl)sulfamide]
< 10 nM | 70 nM | NCCS(=O)(=O)C(c1nnc(CC2SC(=O)NC2=O)o1)c1nc2ccc(-c3ccc(C(=O)N4CCOCC4)cc3)cc2s1 (stereo not drawn) [Example 185, 5-{[5-([(2-aminoethyl)sulfonyl]{6-[4-(4-morpholinylcarbonyl)phenyl]-1,3-benzothiazol-2-yl}methyl)-1,3,4-oxadiazol-2-yl]methyl}-1,3-thiazolidine-2,4-dione]
57 nM | 71 nM | CN(C)C(=O)O[C@H](C(=O)NCc1nnc(C(c2nc3ccc(-c4ccccc4)cc3s2)S(C)(=O)=O)o1)C(C)(C)C (stereo partly drawn) [Example 156, (1S)-2,2-dimethyl-1-(((5-((methylsulfonyl)(6-phenyl-1,3-benzothiazol-2-yl)methyl)-1,3,4-oxadiazol-2-yl)methyl)carbamoyl) propyl dimethylcarbamate]
11 nM | 124 nM | Cn1cc(-c2ccc3nc(C(c4nnc(CNS(N)(=O)=O)o4)S(=O)(=O)CCC(=O)O)sc3c2)cn1 (stereo not drawn) [Example 174, 3-(((6-(1-Methyl-1H-pyrazol-4-yl)-1,3-benzothiazol-2-yl)(5-((sulfamoylamino)methyl)-1,3,4-oxadiazol-2-yl)methyl)sulfonyl)propanoic acid]
10 nM | 22 nM | CS(=O)(=O)C(c1nnc(CNS(N)(=O)=O)o1)c1nc2ccc(-c3cccc(C(=O)N4CC(O)C4)c3)cc2s1 (stereo not drawn) [Example 252, N-{[5-({6-[3-(3-hydroxyazetidine-1-carbonyl)phenyl]-1,3-benzothiazol-2-yl} (methanesulfonyl)methyl)-1,3,4-oxadiazol-2-yl]methyl}aminosulfonamide]
137 nM | 26 nM | CC(C)(C)[C@H](O)C(=O)NCc1nnc(C(c2nc3ccc(-c4ccccc4)cc3s2)S(C)(=O)=O)o1 (stereo partly drawn) [Example 155, (2S)-2-hydroxy-3,3-dimethyl-N-((5-((methylsulfonyl)(6-phenyl-1,3-benzothiazol-2-yl)methyl)-1,3,4-oxadiazol-2-yl)methyl)butanamide]
1 nM | 1 nM | CS(=O)(=O)C(c1nnc(CNS(N)(=O)=O)o1)c1nc2cc(-c3ccccc3)ccc2s1 (stereo not drawn) [Example 249, N-({5-[methanesulfonyl(5-phenyl-1,3-benzothiazol-2-yl)methyl]-1,3,4-oxadiazol-2-yl}methyl) aminosulfonamide]
< 10 nM | 418 nM | CS(=O)(=O)C(c1nnc(CC2SC(=O)NC2=O)o1)c1nc2ccc(C#N)cc2s1 (stereo not drawn) [Example 190, 2-((5-((2,4-Dioxo-1,3-thiazolidin-5-yl)methyl)-1,3,4-oxadiazol-2-yl)(methylsulfonyl)methyl)-1,3-benzothiazole-6-carbonitrile]

Structure (SMILES) | IC50 (Endothelial lipase (EL)) | IC50 (hepatic lipase (HL))
NCCS(=O)(=O)C(c1nnc(CC2SC(=O)NC2=O)o1)c1nc2cc(F)c(-c3ccccc3)cc2s1 (stereo not drawn) [Example 186, 5-((5-(((2-aminoethyl)sulfonyl)(5-fluoro-6-phenyl-1,3-benzothiazol-2-yl)methyl)-1,3,4-oxadiazol-2-yl)methyl)-1,3-thiazolidine-2,4-dione] | < 10 nM | 49 nM
NS(=O)(=O)NCc1nnc(C(c2nc3ccc(-c4cccc(Cl)c4)cc3s2)S(=O)(=O)Cc2ccccc2)o1 (stereo not drawn) [Example 129, N-((5-((benzylsulfonyl)(6-(3-chlorophenyl)-1,3-benzothiazol-2-yl)methyl)-1,3,4-oxadiazol-2-yl)methyl) sulfamide] | < 10 nM | < 10 nM
